Assay results reported in patent US20240067631A1, “PYRAZOLE DERIVATIVES USEFUL AS NAMPT MODULATORS” (Cytokinetics, Inc., priority 2020, published 2024).

How the values were obtained:
[1] = molecular target: human NAMPT (Homo sapiens (Human), UniProt P43490); test: Human recombinant enzyme assay (NMN fluorescence biochemical assay); conditions: concentration of compound that generates 40% higher activity over basal; 6 nM human NAMPT, 60 min
In short: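 Recombinant human NAMPT (6 nM) with 2.5 mM ATP, […] PRPP and […] nicotinamide in HEPES pH 7.2 with DTT, CHAPS, NaCl, MgCl2; 60 min at ambient temperature. NMN derivatised with acetophenone/KOH/formic acid, fluorescence read at 355/460 nm. AC1.4 (40% above basal) and EC50 reported.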

[2] = molecular target: endogenous NAMPT (Homo sapiens (Human), UniProt P43490); test: Cellular NAD+ modulation assay in SH-SY5Y cells with doxorubicin; assay type: cell-based; conditions: Neuroblastoma SH-SY5Y cells, 40 hours, cellular NAD levels
Description: The compounds described herein were also assayed for their ability to stimulate the endogenous NAMPT in a native cellular environment in the cellular NAD+ modulation assay, which measures the ability of the compound to modulate cellular NAD levels. Increased levels of NAD are expected by compounds that permeate the cells and activate the catalytic activity of the endogenous NAMPT.
Neuroblastoma SH-SY5Y cells were grown in 1:1 mixture of Eagle's Minimum Essential Medium and F12 Medium, along with 10% fetal bovine serum, in a humidified incubator with an atmosphere of 95% air and 5% CO2 at 37° C. The assays were initiated by plating 20 μL of SH-SY5Y cells in culture medium with 0.1% fetal bovine serum, at a density of 5000 cells per well to a 384-well Corning™ BioCoat™ Poly-D-Lysine Multiwell Plates. The plates were incubated in the 37° C. incubators for a period of 5 hours. Compounds in DMSO were added to the plates in a volume of 120 nL using the Labcyte Echo Liquid Handlers. 5 μL of a 1.5 uM Doxorubicin solution in assay medium is added to each well. The plates are then incubated for 40 hours. 30 μL of a readout-solution containing 0.2 U/mL Diaphorase enzyme, 40 uM resazurin, 10 uM FMN, 0.8 U/mL Alcohol dehydrogenase, 3% ethanol, 0.4 mg/mL bovine serum albumin, 0.2% Triton X-100 in 100 mM Tris-HCl, 30 mM EDTA, pH 8.4. The plates were read for fluorescence (Excitation/Emission=540 nm/590 nm) using an EnVision plate reader after 60 mins of incubation at ambient temperature.

Sequence of human NAMPT (P43490 whole entry): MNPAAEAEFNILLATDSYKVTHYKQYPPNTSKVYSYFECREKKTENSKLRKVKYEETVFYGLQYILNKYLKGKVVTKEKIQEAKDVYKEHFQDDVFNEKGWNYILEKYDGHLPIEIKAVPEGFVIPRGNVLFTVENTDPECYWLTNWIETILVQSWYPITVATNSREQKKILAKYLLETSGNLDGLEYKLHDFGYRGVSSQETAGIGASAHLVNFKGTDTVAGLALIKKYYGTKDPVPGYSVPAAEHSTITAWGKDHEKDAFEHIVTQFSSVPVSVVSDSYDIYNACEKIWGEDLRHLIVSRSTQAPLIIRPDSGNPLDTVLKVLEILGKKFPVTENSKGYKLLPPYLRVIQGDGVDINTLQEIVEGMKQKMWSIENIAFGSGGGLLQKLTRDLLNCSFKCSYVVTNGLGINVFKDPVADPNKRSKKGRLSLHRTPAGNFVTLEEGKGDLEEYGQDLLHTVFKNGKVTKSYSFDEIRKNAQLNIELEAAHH
Sequence of endogenous NAMPT (P43490 whole entry): as above

Cc1nc(C(=O)N[C@H](C)c2cccc(F)n2)nc(NCCc2cn[nH]c2)c1Cl [Compound 147, (R)-4-((2-(1H-pyrazol-4-yl)ethyl)amino)-5-chloro-N-(1-(6-fluoropyridin-2-yl)ethyl)-6-methylpyrimidine-2-carboxamide]
AC1.4 Human [1]: <0.003 µM
SY5Y (human) NAD Cell Dox AC0.3 [2]: 0.02 µM

Cc1nc(C(=O)N[C@H](C)c2cccc(F)n2)nc(NCCc2cn[nH]c2)c1F [Compound 149, (R)-4-((2-(1H-pyrazol-4-yl)ethyl)amino)-5-fluoro-N-(1-(6-fluoropyridin-2-yl)ethyl)-6-methylpyrimidine-2-carboxamide]
AC1.4 Human [1]: 0.02 µM
SY5Y (human) NAD Cell Dox AC0.3 [2]: 0.01 µM
